Experimental data from patent US5690956A, “Hair care perming agent” (priority 1995, dated 1997).

Assays:
[1] = test system: hair, especially the cuticle; experiment: Damage to hair (cuticle); design: species or system human; conditions: vs sulfhydryl reducing agents in alkaline pH
disulfide bonds in hair [2] = experiment: Reduction (cleavage) of disulfide bonds in hair protein; format: biochemical, human
Text: The extent of cleavage of disulfide bonds using thioglycollate depends on the concentration of the reducing agent and on the amount of mechanical stress applied to the hair shaft. In spite of the conditions used in performing a reduction of the disulfide bonds, in prior practice in a laboratory setting, no more than 65-70% of the protein cystine bonds in hair were disrupted. In the actual practice of hair perming, the reduction level is even lower, ranging between 19% and 43%. When using thioglycollate as a reducing agent, the optimal perming condition occurs using ambient temperatures and a 5% (w/v) solution of thioglycollate.
2) The reducing reactions are conducted under conditions of ambient or slightly elevated temperature in a mildly acidic buffer media ranging in a pH from 2.0-5.6 and with a TCEP concentration range of 5-10% w/v. The reaction occurs over a period of about 15 minutes.

[3] = Stability of TCEP (aqueous acidic media, air oxidation, temperature); format: physicochemical
Water solubility of TCEP = format: physicochemical
[4] = test system: soluble proteins, such as antibodies; conditions: in the presence of 6M guanidine or 8M urea; cited from earlier work
human hosts = experiment: Human safety of the reducing agent
disulfide bonds in hair [5] = conditions: laboratory setting, prior practice; cited from earlier work
[6] = test system: hair, especially the cuticle; conditions: elevated pH, usually pH 9-12; prior art; cited from earlier work

SMILES | damage to hair, especially the cuticle [1] | reactivity toward other functional groups found in hair (disulfide bonds in hair [2]) | reduction of some of the most stable disulfide bonds in hair (disulfide bonds in hair [2]) | effectiveness in reducing disulfide bonds vs dithiothreitol, mercaptoethanol, or thioglycollic acid (disulfide bonds in hair [2]; acidic pH) | period over which the reducing reaction occurs (disulfide bonds in hair [2]; pH 2.0-5.6, TCEP 5-10% w/v, ambient or slightly elevated temperature) | resistance to air oxidation ([3]; air) | stability in aqueous acidic media ([3]; aqueous acidic media) | stability when exposed to fluctuations in temperature ([3]; fluctuations in temperature) | solubility (Water solubility of TCEP) [mg/mL] | function as reducing agent on soluble proteins [4] | toxicity to human hosts / safety profile (human hosts) | protein cystine bonds in hair disrupted (extent of reduction) (disulfide bonds in hair [5]) | cuticle damage [6]
Cl.O=C(O)CCP(CCC(=O)O)CCC(=O)O [TCEP, Tris-(2-carboxy-ethyl) phosphine hydrochloride] | lower instance of damaged hair | essentially non-reactive | Selective and complete reduction | more effective than traditional sulfhydryl reducing agents | about 15 minutes | substantially resistant to air oxidation | stable in aqueous acidic media | very stable | ~310 | function well | not toxic to human hosts |  | 
O=C(O)CS [thioglycollate, thioglycollic acid] |  |  |  |  |  |  |  |  |  |  |  | 65-70% | severe cuticle damage
